Measured values reported in paper PMC4674085, “Towards Prebiotic Catalytic Amyloids Using High Throughput Screening” (PLoS ONE, 2015).
Peptide text beside a SMILES is read from it.

Legend:
[1] = Plate reader 4NPA hydrolysis kinetics of purified peptide amyloids at pH 7.3; assay type: biochemical; conditions: for k cat/K M = k 2 from linear fit to v 0 = [E]0 k 2[S] / k cat/K M / K M / k cat: 4NPA hydrolysis; for k cat/K M = k 2 from linear fit to v 0 = [E]0 k 2[S]: pH 7.3, plate reader A400, triplicate (36 without replicates); for k cat/K M / K M / k cat: pH 7.3 HEPES with zinc(II), 20 μM purified peptide; for k cat/K M: 0.1-1.0 mM 4NPA, 1% CH3CN, A400, Michaelis-Menten fit, triplicate (duplicate for 8, 27, 34, 35); for k cat/K M / k cat: per monomer peptide; for K M / k cat: Michaelis-Menten fit
Method: The reaction buffer consisted of the same buffer as the fibrillization buffer without ZnCl2 and with 1.33 mM 4NPA prepared from a 100 mM stock in CH3CN. The samples of the amyloid library were mixed 1:3 with the reaction buffer yielding 40 μM peptide and, when present 250 μM zinc(II). The absorbance measurements were performed in a BMG Pherastar platereader with a 400 nm band-pass filter (10 nm bandwidth) in 96-well Nunclon Delta surface plates or 384-well Greiner Bio-One non-bind black μclear plates.
The kinetics assays performed on the purified peptides were prepared similarly except that the peptide concentration was 20 μM in the reaction. Furthermore, the various substrate concentrations and replicate samples were randomly distributed over the plate to minimize systematic errors. Various 4NPA concentrations (i.e. 0.1 mM, 0.2 mM, 0.4 mM, 0.6 mM, 1.0 mM) were added from a 100 times stock so that the final CH3CN concentration was always 1%. The linear part of the hydrolysis activity was fit with an extinction coefficient of ε = 9700 M^-1cm^-1 and corrected for the background reaction rate of buffer alone (v bg = 5.0 × 10^-6 Ms^-1) to obtain the initial reaction rate v 0. The average of the initial reaction rates at each substrate concentration were then fit to the Michaelis-Menten type kinetics to obtain k cat, K M and k cat/K M always calculated per monomer peptide. The background reaction rate was obtained similarly using 5 replicates.

[2] = Transmission electron microscopy (TEM) of fibrils; assay type: physicochemical; parameters: key: +: ﬁbrils present; −: absent in EM micrographs; conditions: uranyl acetate stain
Method: The samples of the amyloid library (50 mM HEPES pH 7.3 or 50 mM NaOAc pH 4) were applied directly to glow-discharged carbon-coated grids, washed and then stained with uranyl acetate. Images were recorded on a Philips CM 12 electron microscope.
(§1) Table A and associated data: Biophysical characterization of library
(§2) Sequence ThT1 CD2 FTIR3 EM4 ThT CD FTIR EM X-ray5 […]
4. (+) ﬁbrils present or (−) absent in EM micrographs. […]

[3] = ATR-FTIR, amide I peak of aggregates; assay type: physicochemical; parameters: key: indicates that no peak was observed within the typical range of stretching frequencies forβ-structure (between dashed lines at 1638 cm−1 and 1615 cm−1); conditions: air-dried pellet, crude peptide
Method: Samples were prepared as for the CD measurements, but instead of re-suspending the samples after centrifugation, 3 μl of H2O were added to the pellet so that it could be placed onto the diamond ATR cell of a Bruker Alpha-p ATR-FTIR spectrometer followed by air-drying before measuring the spectra. Blank subtraction was performed with an empty cell (air) and all measurements were performed without the pressure applicator.
as §1, §2
(§3) 3. The peak position in amide I region is given in cm−1. […]

[4] = Circular dichroism (CD), secondary structure of aggregates; assay type: physicochemical; parameters: key: β+: has minimum near 217 nm; β++: has minimum near 217 nm and a maximum near 197 nm; −: signal too weak to interpret; ?: spectra not typical of any secondary structure
Method: The concept of creating an amyloid library out of a peptide library is only meaningful if the vast majority of the peptides actually form amyloids in at least one of the conditions tested. To establish the validity of our amyloid library we measured circular dichroism (CD), Fourier transform infrared spectroscopy (ATR-FTIR), as well as thioflavin T (ThT) fluorescence of peptides 1–33 at pH 7.3 (50 mM HEPES) and pH 4 (50 mM NaOAc) (see interactive Table A and associated data in S1 File). Based on the analysis of the CD and ATR-FTIR spectra (shown in the interactive Table A in S1 File) all the peptides formed β-structured aggregates in at least one condition. Most of the 33 peptides induced a significant increase in ThT fluorescence in at least one condition. […] The fibrils from a selection of the active peptides were aligned and analyzed by X-ray diffraction (Figures C and D in S1 File). In each case we observed the cross-β diffraction pattern typical of amyloid fibrils, although the degree of sample alignment varied. For two samples, 14 and 27, the difference in meridional and equatorial diffraction intensities was small but easily detected in a plot of the angular dependence of the intensity (Figure D in S1 File). The conclusion that can be drawn out of the multiple analysis techniques is that the 33 peptides that comprise the library are overwhelmingly prone to form fibril-like, β-structured aggregates. The cross-β diffraction of the tested aggregates would imply that they are more specifically all amyloidogenic.
CD measurements were carried out on a Jasco J815. Samples were prepared by centrifuging the amyloid library at 25,000 g for 10 min and then removing the supernatant. The pellets were resuspended at an approximate concentration of 100 μg/ml in 10 mM HEPES pH 7.3 (for mixtures from 50 mM HEPES) or 10 mM NaOAc pH 4 (for mixtures from 50 mM NaOAc), the suspensions were then treated with an ultrasonic probe for 5 s, upon which the solutions were placed in 1 mm cuvettes, diluted as necessary to maintain the detector voltage below 600 V and scanned from 260–190 nm at 50 nm/min, 1 nm band-pass, 2 second integration, averaged over 3 repetitions.
as §1, §2
2. […]

[5] = Thioflavin T fluorescence (ThT); assay type: physicochemical; conditions: crude peptide fibrillized at 160 μM, mixed 10:1 with 50 μM ThT, ex 440 nm em 480 nm
Method: The samples of the amyloid library (50 mM HEPES pH 7.3 or 50 mM NaOAc pH 4) were mixed 10:1 with 50 μM ThT and the increase in fluorescence was measured in a 384-well plate in a BMG Pherastar platereader (ex: 440 nm em: 480 nm). The background signal from the peptides without ThT was subtracted from the one with the ThT present in the sample. Due to the large dynamic range of the signals among the many samples, the measurements were made at two different gain settings to ensure that all of the signals fell within the measureable range.
as §1
Sequence ThT1 CD2 FTIR3 EM4 ThT CD FTIR EM X-ray5
1. Fold increase in ThT ﬂuorescence over background. […]

[6] = NMR-based 4NPA hydrolysis assay at pH 4.3; assay type: biochemical; conditions: 4NPA hydrolysis by 1D-1H NMR, 50 mM d3-NaOAc pH 4.3, 2% d6-DMSO, 40 μM total purified peptide (mixture 20 μM each), 0.9 mM 4NPA, 25°C, over 15 days, first order fit, no zinc(II)
Method: Purified peptides were solubilized in deuterated DMSO with 1% TFA at a concentration of 4 mM and subsequently diluted to 160 μM in 50 mM deuterated NaOAc buffer at pH 4.3. In the case of the peptide mixture fibrillization (12/21), each peptide was 80 μM. Fibrillization occurred over 5 days after which the sample was diluted to 40 μM total peptide in 50 mM buffer with 0.9 mM 4NPA (from a 90 mM stock solution in d6-DMSO) and a final concentration of d6-DMSO of 2%. From this reaction mixture 500 μl was transferred to a 5 mm NMR tube and measurements were performed in a 600 MHz Bruker NMR spectrometer equipped with a cryo-probe.
The hydrolysis kinetics were monitored in a continuous series of 1D-^1H experiments each consisting of 32 scans at 25°C and each requiring 17 min. In this manner, several time segments lasting between 8 and 17 hours were collected over a period of 15 days. Between measurements, the samples were kept at 25°C.
Data processing and peak integration was performed with Topspin3.2 (Bruker). Relevant peaks used for the analysis were the 4 aromatic protons of both 4NPA and of its product (p-nitrophenol) as well as the methyl groups of 4NPA and acetic acid. The ratio of the sum of integrals for the product protons to the sum of integrals for all protons was used to calculate the substrate concentration. […]

[7] = Aggregation at pH 4 from soluble material left after 100,000 g centrifugation; assay type: physicochemical; conditions: 40 μM purified peptide, pH 4, soluble material in supernatant of 100,000 g centrifugation
[8] = X-ray fiber diffraction of aligned fibrils; assay type: physicochemical; conditions: washed pellets dried between glass capillaries, room temperature
Method: The samples were centrifuged, the pellet resuspended (ultrapure water or 10 mM NaOAc pH 4) and centrifuged again. The washed pellets were resuspended in a minimal amount of water and 4 μl of the suspension were pipetted between the melted ends of two glass capillaries, which were then left to dry overnight in a sealed petri dish. The dried material was placed in an X-ray beam (Rigaku MicroMax-007HF) at room temperature for a 20 min exposure and diffraction data was collected on a Mar345 image plate detector.
Table A and associated data: Biophysical characterization of library […]
1. Fold increase in ThT ﬂuorescence over background.
2. CD spectra classiﬁed as follows: (β+) has minimum near 217 nm, (β++) has minimum near 217 nm and a maximum near 197 nm, (−) signal too weak to interpret, (?) spectra not typical of any secondary […]
as §3
within the typical range of stretching frequencies forβ-structure (between dashed lines at 1638 cm−1 and […]
4. (+) ﬁbrils present or (−) absent in EM micrographs.
5. Diﬀraction images recorded for the aligned ﬁbrils of 5 diﬀerent peptides (see materials and methods).

[9] = pH 4.0, pellet (25,000 g, 10 min) resuspended ~100 μg/ml in 10 mM NaOAc pH 4, crude peptide
[10] = pH 7.3, pellet (25,000 g, 10 min) resuspended ~100 μg/ml in 10 mM HEPES pH 7.3, crude peptide

Compound	k cat/K M = k 2 from linear fit to v 0 = [E]0 k 2[S] [1] [M⁻¹ s⁻¹]	k cat/K M [1] [M⁻¹ s⁻¹]	K M [1] [µM]	k cat [1]	EM, fibrils in EM micrographs ([2]; pH 7.3, 50 mM HEPES)	FTIR peak position in amide I region ([3]; pH 4.0 (50 mM NaOAc))	FTIR peak position in amide I region ([3]; pH 7.3 (50 mM HEPES)) [cm⁻¹]	CD spectrum class [4, 9]	CD spectrum class [4, 10]	ThT, fold increase in ThT fluorescence over background ([5]; pH 4.0, 50 mM NaOAc) [fold]	ThT, fold increase in ThT fluorescence over background ([5]; pH 7.3, 50 mM HEPES) [fold]	further results
c1c[nH]cn1 [Imidazole, reference compound]	0.199 ± 0.008											
CC(=O)N[C@@H](Cc1c[nH]cn1)C(=O)NCC(=O)N[C@@H](Cc1c[nH]cn1)C(N)=O [Peptide 36, Ac-HGH-CONH2] (Ac-His-Gly-His-NH2)	0.041 ± 0.005											zinc(II) dependence of 4NPA hydrolysis activity ([1]; pH 7.3): not zinc(II)-dependent
Ac-IHIHIQI-NH2 [Peptide 34, Ac-IHIHIQI-CONH2, reference compound]		15.76 ± 0.96	1570 ± 290	2.47±0.32 10^-2s^-1								
Ac-YVHVAVHV-NH2 [Peptide 28, Ac-YVHVAVHV-CONH2]		0.215 ± 0.007	1950 ± 230	0.042±0.004 10^-2s^-1	+	−	1624	−	β+	1	114	
Ac-YVHVSVHV-NH2 [Peptide 10, Ac-YVHVSVHV-CONH2]	0.172 ± 0.003				+	−	1623	−	β+	1	29	
Ac-YVSVSVHV-NH2 [Peptide 12, Ac-YVSVSVHV-CONH2]						1621 cm⁻¹	1623		β++	5	183	EM, fibrils in EM micrographs ([2]; pH 4.0, 50 mM NaOAc): +; k cat/K M [6]: 6145.6±8.5 10^-6M^-1s^-1; aggregation behaviour at pH 4 [7]: began to aggregate within minutes; X-ray diffraction of aligned fibrils [8]: cross-β
